Experimental data taken from paper PMC11355573, “A New Renieramycin T Right-Half Analog as a Small Molecule Degrader of STAT3” (Marine Drugs, 2024).
Where two headings read alike, the source gives them in different places. Residues, ends and D or L forms follow the SMILES beside them. *: point of attachment. Cbz = O=C(OCc1ccccc1)*

Columns and labels:
[1] = tested on: H292 cells; assay: MTT cell viability assay (cytotoxicity); format: cell-based, human; conditions: read-out: IC50 ± SD H292
Experimental: (§1) NSCLCs H292 and H460 were treated with various concentrations of derivatives of the RT right-half analog for 24 h. […] However, the IC50 values for DH_17, DH_20, DH_23, and DH_26 in H460 cells were greater than 100 μM. TM-(−)-18 was identified as a potent compound in a previous study. The structure of TM-(−)-18 was present in Figure 1A. […] To assess the selectivity of DH_28, DH_30, DH_31, and TM-(−)-18 in lung cancer cells, non-tumorigenic epithelial cell lines derived from human bronchial epithelial cells (BEAS-2B) were treated with DH_28, DH_30, DH_31, and TM-(−)-18 at various concentrations for 24 h.
(§2) MTT assay was conducted to ascertain cell viability in the presence of DH_17, DH_20, DH_23, DH_26, DH_28, DH_30, DH_31, or TM-(–)-18. H292 and H460 cells (1.0 × 10^4 cells per well) were seeded in 96-well plates. Following overnight incubation, the cells were treated with different concentrations of RT right–half analogs (0–100 μM) for 24 h at 37 °C. Subsequently, cell viability was assessed using MTT assay, following the manufacturers’ protocols. The optical density was measured at 570 nm using a CLARIOStar microplate reader (BMG Labtech, Ortenberg, Germany).

[2] = tested on: H460 cells; assay: MTT cell viability assay (cytotoxicity); format: cell-based, human; conditions: read-out: IC50 ± SD H460
Experimental: as §1, §2

[3] = tested on: BEAS-2B cells; assay: MTT assay in non-tumorigenic bronchial epithelial cells (selectivity); format: cell-based; conditions: Homo sapiens, 24 h, read-out: BEAS-2B IC50 ± SD
Experimental: as §1
Figure 2 The effect of RT right-half analogs on cytotoxicity in NSCLC and human normal lung epithelial (BEAS-2B) cell lines and apoptotic cell death in NSCLC cells. (A) NSCLC H292 and H460 cells were treated with derivatives of RT right-half analogs for 24 h and analyzed using MTT assay to assess cytotoxicity. (B) IC50 values for H292 and H460 cell lines were calculated. (C) BEAS-2B cells were treated with DH_28, DH_30, DH_31, and TM-(−)-18 for 24 h. The cytotoxic effects were evaluated using an MTT assay, and the IC50 values for BEAS-2B cells were determined. (D) H292 and H460 cells were seeded and treated with 0–10 μM of DH_28, DH_30, and DH_31 for 24 h. Hoechst 33342 and PI were used to stain the cell nuclei. Images were obtained under a fluorescence microscope. (E) The percentages of cell death were calculated based on the stained images in H292 and H460 cells. […] TEXT PRINTED IN THE PICTURE: (B) DH_17: IC50 ± SD (μM) H292: 20.50 ± 3.69; IC50 ± SD (μM) H460: > 100 | (B) DH_20: IC50 ± SD (μM) H292: 21.46 ± 3.77; IC50 ± SD (μM) H460: > 100 | (B) DH_23: IC50 ± SD (μM) H292: 17.50 ± 3.08; IC50 ± SD (μM) H460: > 100 | (B) DH_26: IC50 ± SD (μM) H292: 7.18 ± 2.39; IC50 ± SD (μM) H460: > 100 | (B) DH_28: IC50 ± SD (μM) H292: 9.56 ± 1.87; IC50 ± SD (μM) H460: 11.48 ± 1.87 | (B) DH_30: IC50 ± SD (μM) H292: 7.80 ± 2.30; IC50 ± SD (μM) H460: 4.51 ± 0.78 | (B) DH_31: IC50 ± SD (μM) H292: 5.54 ± 1.04; IC50 ± SD (μM) H460: 2.90 ± 0.58 | (B) TM-(–)-18: IC50 ± SD (μM) H292: > 100; IC50 ± SD (μM) H460: 7.89 ± 1.27 | (C) DH_28: BEAS-2B IC50 ± SD (μM): 16.46 ± 2.11 | (C) DH_30: BEAS-2B IC50 ± SD (μM): 5.50 ± 1.70 | (C) DH_31: BEAS-2B IC50 ± SD (μM): 6.51 ± 1.40 | (C) TM-(–)-18: BEAS-2B IC50 ± SD (μM): 7.25 ± 1.25 DOUBTS OF THE COPYIST ABOUT THIS PICTURE: Panel C, DH_28, IC50: small print, 16.46 ± 2.11 is the best reading; 6 could be 8 / Panel C, DH_30, IC50: small print, 5.50 ± 1.70 is the best reading; 5 could be 6 / Panel C, DH_31, IC50: small print, 6.51 ± 1.40 is the best reading; 6 could be 8 or 5 / Panel C, TM-(–)-18, IC50: small print, 7.25 ± 1.25 is the best reading

[4] = tested on: H292 cells; format: cell-based; conditions: H292, 10 µM; for apoptosis: 24 h; for necrosis: 24 h (p < 0.001)
Experimental: (§3) Apoptosis is a crucial mechanism of cell death induced by anticancer drugs. We further analyzed the apoptosis induction effect of the potent small molecules, namely DH_28, DH_30, and DH_31. Nuclear morphology detected by the staining with nucleus-specific fluorescence dye Hoechst 33342 and cell-impermeable PI for necrotic detection was performed. Morphologic changes by means of condensed and/or fragmented nuclei were observed after 24 h of treatment (Figure 2D). […] Therefore, DH_31 was selected for further experiments.
(§4) Figure 2 The effect of RT right-half analogs on cytotoxicity in NSCLC and human normal lung epithelial (BEAS-2B) cell lines and apoptotic cell death in NSCLC cells. (A) NSCLC H292 and H460 cells were treated with derivatives of RT right-half analogs for 24 h and analyzed using MTT assay to assess cytotoxicity. (B) IC50 values for H292 and H460 cell lines were calculated. (C) BEAS-2B cells were treated with DH_28, DH_30, DH_31, and TM-(−)-18 for 24 h. The cytotoxic effects were evaluated using an MTT assay, and the IC50 values for BEAS-2B cells were determined. (D) H292 and H460 cells were seeded and treated with 0–10 μM of DH_28, DH_30, and DH_31 for 24 h. Hoechst 33342 and PI were used to stain the cell nuclei. Images were obtained under a fluorescence microscope. (E) The percentages of cell death were calculated based on the stained images in H292 and H460 cells. Data represent the mean ± SD (n = 3). *, **, and *** indicate a statistically significant difference between the treated and the untreated cells at p < 0.05, p < 0.01, and p < 0.001, respectively. TEXT PRINTED IN THE PICTURE: (B) DH_17: IC50 ± SD (μM) H292: 20.50 ± 3.69; IC50 ± SD (μM) H460: > 100 | (B) DH_20: IC50 ± SD (μM) H292: 21.46 ± 3.77; IC50 ± SD (μM) H460: > 100 | (B) DH_23: IC50 ± SD (μM) H292: 17.50 ± 3.08; IC50 ± SD (μM) H460: > 100 | (B) DH_26: IC50 ± SD (μM) H292: 7.18 ± 2.39; IC50 ± SD (μM) H460: > 100 | (B) DH_28: IC50 ± SD (μM) H292: 9.56 ± 1.87; IC50 ± SD (μM) H460: 11.48 ± 1.87 | (B) DH_30: IC50 ± SD (μM) H292: 7.80 ± 2.30; IC50 ± SD (μM) H460: 4.51 ± 0.78 | (B) DH_31: IC50 ± SD (μM) H292: 5.54 ± 1.04; IC50 ± SD (μM) H460: 2.90 ± 0.58 | (B) TM-(–)-18: IC50 ± SD (μM) H292: > 100; IC50 ± SD (μM) H460: 7.89 ± 1.27 | (C) DH_28: BEAS-2B IC50 ± SD (μM): 16.46 ± 2.11 | (C) DH_30: BEAS-2B IC50 ± SD (μM): 5.50 ± 1.70 | (C) DH_31: BEAS-2B IC50 ± SD (μM): 6.51 ± 1.40 | (C) TM-(–)-18: BEAS-2B IC50 ± SD (μM): 7.25 ± 1.25 DOUBTS OF THE COPYIST ABOUT THIS PICTURE: Panel C, DH_28, IC50: small print, 16.46 ± 2.11 is the best reading; 6 could be 8 / Panel C, DH_30, IC50: small print, 5.50 ± 1.70 is the best reading; 5 could be 6 / Panel C, DH_31, IC50: small print, 6.51 ± 1.40 is the best reading; 6 could be 8 or 5 / Panel C, TM-(–)-18, IC50: small print, 7.25 ± 1.25 is the best reading

[5] = tested on: H460 cells; format: cell-based; conditions: H460, 10 µM, 24 h
Experimental: as §3, §4

[6] = biological target: T1, STAT3 (Homo sapiens, UniProt P40763); assay: STAT3 proteasomal degradation, Western blot with or without MG132; format: cell-based
T1 construct: endogenous in cells; host or cells: NCI-H460 (ATCC HTB-177)
Experimental: To explore whether the reduction in total STAT3 protein after DH_31 treatments (as shown in Figure 5B–E) occurs at the mRNA or protein levels, we first investigated mRNA levels using Real-time qPCR. […] To evaluate whether DH_31 affects STAT3 stability, pretreatment with MG132, a potent selective proteasome inhibitor, was performed. H460 cells were pretreated with or without MG132 (10 μM) for 1 h and then cells were either treated with DH_31 for 6 h or left untreated. […] The proteasome can recognize and degrade protein targets that are conjugated by single or poly-ubiquitin molecules. To investigate the ubiquitination level of STAT3 with DH_31 treatments, the ubiquitination level was evaluated using immunoprecipitation and Western blot analysis of the STAT3–ubiquitin complex in the lung cancer cells treated with DH_31 and in untreated cells.
Immunoprecipitation assay was performed to investigate ubiquitin–proteasomal degradation, shedding light on the regulatory mechanisms involved. H460 cells (4.0 × 10^5 cells per well) were seeded in 6-well plates. Following overnight incubation, the cells were pretreated with 10 μM of a proteasome inhibitor, MG132, for 1 h to prevent proteasomal degradation, and then were treated with different concentrations of DH_31 (0–2.5 μM) for 6 h. After treatment, the cells were lysed as described above. Immunoprecipitation was carried out using the Dynabeads™ Protein G Immunoprecipitation kit, following the manufacturers’ protocols. The magnetic beads were coated with the rabbit anti-STAT3, then incubated with whole-cell lysate and mixed gently overnight at 4 °C. After washing, the supernatant containing the antibody–antigen complex was used to perform Western blot analysis to detect the ubiquitinated STAT3 protein.

[7] = tested on: B16F10 cells; design: method as in PMID 36014573; conditions: B16F10 cells induced by the RAW264.7 supernatant; cited from earlier work
[8] = design: method as in PMID 32260280; conditions: concentration-dependent manner; cited from earlier work

T1 sequence (P40763 whole entry): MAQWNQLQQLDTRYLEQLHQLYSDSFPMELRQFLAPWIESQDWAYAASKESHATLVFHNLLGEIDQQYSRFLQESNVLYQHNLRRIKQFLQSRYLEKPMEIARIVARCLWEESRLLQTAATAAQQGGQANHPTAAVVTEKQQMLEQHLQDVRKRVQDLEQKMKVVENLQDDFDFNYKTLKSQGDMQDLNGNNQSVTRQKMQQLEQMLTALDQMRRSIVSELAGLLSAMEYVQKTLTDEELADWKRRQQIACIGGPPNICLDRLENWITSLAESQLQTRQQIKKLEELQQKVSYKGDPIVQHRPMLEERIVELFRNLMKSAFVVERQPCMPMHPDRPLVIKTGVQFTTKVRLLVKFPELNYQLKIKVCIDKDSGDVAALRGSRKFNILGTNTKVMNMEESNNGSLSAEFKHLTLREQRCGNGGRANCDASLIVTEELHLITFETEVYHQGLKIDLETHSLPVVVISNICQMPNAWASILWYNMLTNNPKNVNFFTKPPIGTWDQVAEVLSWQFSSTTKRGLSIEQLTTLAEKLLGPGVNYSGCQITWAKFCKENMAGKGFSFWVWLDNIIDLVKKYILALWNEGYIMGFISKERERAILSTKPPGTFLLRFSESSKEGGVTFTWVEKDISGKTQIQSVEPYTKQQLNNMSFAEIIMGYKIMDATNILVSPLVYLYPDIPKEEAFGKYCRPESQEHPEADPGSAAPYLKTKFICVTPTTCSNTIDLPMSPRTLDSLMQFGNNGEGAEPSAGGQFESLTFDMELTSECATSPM

COc1c(C)cc2c(c1O)[C@@H]1CN(Cc3cccc4ccccc34)[C@@H](C#N)[C@H](C2)N1C [DH_28, (1R,4R,5S)-10-hydroxy-9-methoxy-8,11-dimethyl-3-(naphthalen-1-ylmethyl)-1,2,3,4,5,6-hexahydro-1,5-epiminobenzo[d]azocine-4-carbonitrile]
IC50 ([1]; 24 h): < 15 µM | IC50 ([1]; Homo sapiens, NCI-H292, 24 h): 9.56 ± 1.87 µM | IC50 ([2]; 24 h): < 15 µM | IC50 ([2]; Homo sapiens, NCI-H460, 24 h): 11.5 ± 1.87 µM | IC50 [3]: 16.5 ± 2.11 µM | apoptosis [4]: significant apoptosis | necrosis [4]: Necrosis was detected | apoptotic cell death [5]: significant apoptotic cell death | necrosis [5]: significant necrosis

COc1c(C)cc2c(c1OCc1ccccc1)[C@@H]1CN(Cc3ccc4ccccc4c3)[C@@H](C#N)[C@H](C2)N1C [DH_30, (1R,4R,5S)-10-(benzyloxy)-9-methoxy-8,11-dimethyl-3-(naphthalen-2-ylmethyl)-1,2,3,4,5,6-hexahydro-1,5-epiminobenzo[d]azocine-4-carbonitrile]
IC50 ([1]; 24 h): < 15 µM | IC50 ([1]; Homo sapiens, NCI-H292, 24 h): 7.8 ± 2.3 µM | IC50 [3]: 5.5 ± 1.7 µM | apoptosis [4]: significant apoptosis | necrosis [4]: Necrosis was detected | apoptotic cell death [5]: significant apoptotic cell death | necrosis [5]: significant necrosis

CC(C)C[C@@H](C=O)NC(=O)[C@H](CC(C)C)NC(=O)[C@H](CC(C)C)NC(=O)OCc1ccccc1 [MG132] (Cbz-Leu-Leu-Leu-aldehyde)
effect on DH_31-induced STAT3 downregulation ([6]; H460, MG132 10 μM 1 h pretreatment, then DH_31 0, 1, 2.5 µM 6 h): significantly reversed | STAT3 level ([6]; H460, MG132 10 μM pretreatment, all DH_31 concentrations): drastically increased

CC=C(C)C(=O)OCC1c2c(c(O)c(C)c3c2OCO3)CC2C3C4=C(CC(C(C#N)N12)N3C)C(=O)C(C)=C(OC)C4=O (stereo not shown) [RT, Renieramycin T]
STAT3 expression [7]: reduced | Twist, Snail, Vimentin, and N-cadherin expression [7]: reduced | migration ability [7]: reduced

COc1c(C)cc2c(c1O)C1CN(Cc3ccccc3)C(C#N)C(C2)N1C (stereo not drawn) [TM-(−)-18, reference compound]
IC50 ([1]; Homo sapiens, NCI-H292, 24 h): > 100 µM | IC50 ([2]; Homo sapiens, NCI-H460, 24 h): 7.89 ± 1.27 µM | IC50 [3]: 7.25 ± 1.25 µM | apoptosis [8]: increased
